Measured values: patent US8895568B2, “Compositions comprising substituted pteridines as agrochemicals” (Dow AgroSciences LLC, priority 2009, dated 2014)
Like-named read-outs stand apart in the source and are kept apart here.

Columns and labels:
Type in all cases: in vivo
Cochliobolus sativus = assay: Spot Blotch of Wheat (COCHSA), foliar spray, percent disease control; settings: Bipolaris sorokiniana, read-out: COCHSA percent control
[1] = tested on: DROSME, AEDSAE, LAPHEG, or HELIVI; assay: Insecticidal activity, active if any of DROSME, AEDSAE, LAPHEG or HELIVI was controlled at 80% or more; settings: read-out: >80% mortality on any insect species @ 4000 ppm
[2] = tested on: Pseudoperonospora cubensis; assay: Cucumber Downy Mildew (PSPECU), foliar spray, percent disease control; settings: read-out: PSPECU percent control
Description: The activity of the compounds as effective fungicides was determined by applying the compounds to plants and observing control of fungal disease. The compounds were formulated at 200 ppm in 10 vol. % acetone plus 90 vol. % Triton X water (deionized water 99.99 wt %+0.01 wt % Triton X100), giving a “formulated test compound.” In a few cases, compounds were formulated at 75 or 8.3 ppm rather than 200 ppm in 10 vol. % acetone plus 90 vol. % Triton X water (deionized water 99.99 wt. %+0.01 wt. % Triton X100), giving a “formulated test compound.” Formulated test compounds were applied to plants using a turn table sprayer fitted with two opposing air atomization nozzles which delivered approximately 1500 L/ha of spray volume. All plants were inoculated with spores of the fungus the day after treatment, then incubated in an environment conducive to disease development. Disease severity was evaluated 4 to 15 days later, depending on the disease and the speed of disease development. The following experiments were performed in the laboratory to determine the fungicidal efficacy of the compounds of the invention. Cucumber Downy Mildew (causal agent Pseudoperonospora cubensis; Bayer code […]): Cucumber plants (variety Bush Champion) were grown from seed in a soil-less peat-based potting mixture (Metromix) until the first true leaf was 20-80% expanded. Each pot contained 1 seedling. These plants were sprayed until wet with the formulated test compound. On the following day, the leaves were inoculated with an aqueous suspension of downy mildew sporangia and the plants were kept in high humidity for one day to permit sporangia to germinate and infect the leaf. The plants were then incubated in a growth chamber until disease developed on untreated control plants. […] The effectiveness of the test compounds at controlling disease when sprayed on leaves was determined by assessing the severity of disease on treated plants, then converting the severity to percent control based on the level of disease on untreated, inoculated plants. Data are the level (in percent) at which the given disease was controlled when the given compound was applied to the foliage of the plants at 200 ppm. In a few cases (noted in the table) the compound was applied to the plants at 75 ppm or 8.3 ppm.

Colletotricum lagenarium = assay: Cucumber Anthracnose (COLLLA), foliar spray, percent disease control
Description: The activity of the compounds as effective fungicides was determined by applying the compounds to plants and observing control of fungal disease. The compounds were formulated at 200 ppm in 10 vol. % acetone plus 90 vol. % Triton X water (deionized water 99.99 wt %+0.01 wt % Triton X100), giving a “formulated test compound.” In a few cases, compounds were formulated at 75 or 8.3 ppm rather than 200 ppm in 10 vol. % acetone plus 90 vol. % Triton X water (deionized water 99.99 wt. %+0.01 wt. % Triton X100), giving a “formulated test compound.” Formulated test compounds were applied to plants using a turn table sprayer fitted with two opposing air atomization nozzles which delivered approximately 1500 L/ha of spray volume. All plants were inoculated with spores of the fungus the day after treatment, then incubated in an environment conducive to disease development. Disease severity was evaluated 4 to 15 days later, depending on the disease and the speed of disease development. The following experiments were performed in the laboratory to determine the fungicidal efficacy of the compounds of the invention. Cucumber Anthracnose (causal agent Colletotricum lagenarium; Bayer code COLLLA): Cucumber plants (variety Bush Champion) were grown from seed in a soil-less peat-based potting mixture (Metromix) until the first true leaf was 20-80% expanded. Each pot contained 1 seedling. These plants were sprayed until wet with the formulated test compound. On the following day, the leaves were inoculated with an aqueous spore suspension of Colletotricum lagenarium and the plants were kept in high humidity for one day to permit spores to germinate and infect the leaf. The plants were then transferred to a growth chamber until disease developed on untreated control plants. […] The effectiveness of the test compounds at controlling disease when sprayed on leaves was determined by assessing the severity of disease on treated plants, then converting the severity to percent control based on the level of disease on untreated, inoculated plants. Data are the level (in percent) at which the given disease was controlled when the given compound was applied to the foliage of the plants at 200 ppm. In a few cases (noted in the table) the compound was applied to the plants at 75 ppm or 8.3 ppm.

Row | Structure (SMILES) | pest or weed control at 200 µg/mL (Cochliobolus sativus; foliar) [%] | pest or weed control at 4000 ppm [1] [%] | pest or weed control at 200 µg/mL ([2]; foliar) [%] | pest or weed control at 200 µg/mL (Colletotricum lagenarium; foliar) [%] | pest or weed control at 200 µg/mL (Cochliobolus sativus; foliar spray) [%] | pest or weed control at 200 µg/mL ([2]; foliar spray) [%] | pest or weed control at 200 µg/mL (Colletotricum lagenarium; foliar spray) [%]
1 | FC(F)(F)c1ccnc(Oc2ccc(CCNc3ncnc4nccnc34)cc2)c1 [Compound 2, pteridin-4-yl-{2-[4-(4-trifluoromethylpyridin-2-yloxy)-phenyl]-ethyl}-amine] | 50 to 79 | > 80 | 80 to 100 | 80 to 100 | – | – | –
2 | FC(F)(F)c1ccc(Oc2ccc(CCNc3ncnc4nccnc34)cc2)nc1 [Compound 5] | 0 to 49 | > 80 | 80 to 100 | 80 to 100 | – | – | –
3 | FC(F)(F)c1cccc(Oc2ccc(CCNc3ncnc4nccnc34)cc2)n1 [Compound 6] | 0 to 49 | > 80 | 80 to 100 | 0 to 49 | – | – | –
4 | Fc1cccc(Oc2ccc(CCNc3ncnc4nccnc34)cc2)n1 [Compound 7, {2-[4-(6-Fluoropyridin-2-yloxy)-phenyl]-ethyl}-pteridin-4-ylamine] | 0 to 49 | > 80 | 80 to 100 | 0 to 49 | – | – | –
5 | N#Cc1ccnc(Oc2ccc(CCNc3ncnc4nccnc34)cc2)c1 [Compound 8] | 0 to 49 | > 80 | 80 to 100 | 80 to 100 | – | – | –
6 | COc1cccc(Oc2ccc(CCNc3ncnc4nccnc34)cc2)n1 [Compound 10, {2-[4-(6-Methoxypyridin-2-yloxy)-phenyl]-ethyl}-pteridin-4-yl-amine] | 0 to 49 | > 80 | 80 to 100 | 0 to 49 | – | – | –
7 | COc1cc(C(F)(F)F)cc(Oc2ccc(CCNc3ncnc4nccnc34)cc2OC)n1 [Compound 178] | 0 to 49 | – | 0 to 49 | 0 to 49 | – | – | –
8 | COc1cc(C(F)(F)F)cc(Oc2cc(C)c(CCNc3ncnc4nccnc34)cc2C)n1 [Compound 179] | 0 to 49 | – | 0 to 49 | 0 to 49 | – | – | –
9 | CC(C)Oc1cc(CCNc2ncnc3nccnc23)ccc1Oc1cc(C(F)(F)F)ccn1 [Compound 180, {2-[3-(Isopropoxy)-4-(4-trifluoromethyl-pyridin-2-yloxy)-phenyl]-ethyl}-pteridin-4-ylamine] | 0 to 49 | – | 80 to 100 | 50 to 79 | – | – | –
10 | COc1cc(CCNc2ncnc3nccnc23)cc(OC)c1O [Compound 181] | 0 to 49 | – | 0 to 49 | 0 to 49 | – | – | –
11 | CC(C)(C)COC(=O)c1ccnc(Oc2ccc(CCNc3ncnc4nccnc34)cc2)c1 [Compound 182] | 0 to 49 | – | 80 to 100 | 0 to 49 | – | – | –
12 | CCOC(=O)c1ccnc(Oc2ccc(CCNc3ncnc4nccnc34)cc2)c1 [Compound 183] | 0 to 49 | – | 80 to 100 | 0 to 49 | – | – | –
13 | CC(F)(F)c1cc[n+]([O-])c(Oc2ccc(CCNc3ncnc4nccnc34)cc2)c1 [Compound 184, (2-{4-[4-(1,1-difluoroethyl)-1-oxy-pyridin-2-yloxy]-phenyl}-ethyl)-pteridin-4-yl-amine] | 0 to 49 | – | 80 to 100 | 50 to 79 | – | – | –
14 | COc1cc(C(F)(F)F)cc(Oc2ccc(CCNc3ncnc4nccnc34)cc2F)n1 [Compound 185] | 0 to 49 | – | 80 to 100 | 0 to 49 | – | – | –
15 | COc1cc(CCNc2ncnc3nccnc23)cc(OC)c1Oc1cc(C(F)(F)F)ccn1 [Compound 186] | 0 to 49 | – | 80 to 100 | 0 to 49 | – | – | –
16 | CCOc1cc(CCNc2ncnc3nccnc23)ccc1Oc1cc(C(C)(F)F)ccn1 [Compound 189] | 0 to 49 | – | 80 to 100 | 50 to 79 | – | – | –
17 | COc1cc(C(C)(F)F)cc(Oc2ccc(CCNc3ncnc4nccnc34)cc2)n1 [Compound 191, (2-{4-[4-(1,1-Difluoroethyl)-6-methoxypyridin-2-yloxy]-phenyl}-ethyl)-pteridin-4-yl-amine] | 0 to 49 | – | 80 to 100 | 50 to 79 | – | – | –
18 | CC(F)(F)c1ccnc(Oc2ccc(CCNc3ncnc4nccnc34)cc2F)c1 [Compound 193] | 0 to 49 | – | 80 to 100 | 0 to 49 | – | – | –
19 | CC(C)Oc1cc(CCNc2ncnc3nccnc23)ccc1Oc1cc(C(C)(F)F)ccn1 [Compound 195] | 0 to 49 | – | 80 to 100 | 50 to 79 | – | – | –
20 | CC(=O)Oc1cc(CCNc2ncnc3nccnc23)ccc1Oc1cc(C(C)(F)F)ccn1 [Compound 196] | 0 to 49 | – | 80 to 100 | 0 to 49 | – | – | –
21 | CC(F)(F)c1ccnc(Oc2ccc(CCNc3ncnc4nccnc34)cc2O)c1 [Compound 197, 2-[4-(1,1-Difluoroethyl)-pyridin-2-yloxy]-5-[2-(pteridin-4-ylamino)-ethyl]-phenol] | 0 to 49 | – | 80 to 100 | 0 to 49 | – | – | –
22 | Cc1cc(Oc2cc(C(F)(F)F)ccn2)ccc1OCCNc1ncnc2nccnc12 [Compound 201] | – | – | – | – | 0 to 49 | 80 to 100 | 0 to 49
23 | CCOc1cc(CCNc2ncnc3nccnc23)ccc1Oc1cc(C(C)C)ccn1 [Compound 205] | – | – | – | – | 0 to 49 | 80 to 100 | 0 to 49
24 | CC(C)(C)c1ccnc(Oc2ccc(CCNc3ncnc4nccnc34)cc2)c1 [Compound 207, {2-[4-(4-tert-Butylpyridin-2-yloxy)-phenyl]-ethyl}-pteridin-4-ylamine] | – | – | – | – | 0 to 49 | 80 to 100 | 0 to 49
25 | COc1ccc(CCNc2nc(C)nc3nc(C)c(C)nc23)cc1 [Compound 208, [2-(4-Methoxyphenyl)-ethyl]-(2,6,7-trimethylpteridin-4-yl)-amine] | – | – | – | – | 0 to 49 | 50 to 79 | 0 to 49
26 | Cc1nc(NCCc2ccc(O)cc2)c2nc(C)c(C)nc2n1 [Compound 209] | – | – | – | – | 0 to 49 | 0 to 49 | 0 to 49
27 | COc1ccc(CCNc2ncnc3nccnc23)cc1Br [Compound 210] | – | – | – | – | 0 to 49 | 80 to 100 | 0 to 49
28 | Oc1ccc(CCNc2ncnc3nccnc23)cc1Br [Compound 211] | – | – | – | – | 0 to 49 | 0 to 49 | 0 to 49
29 | CC(C)(C)OC(=O)N(CCc1ccc(O)cc1)c1ncnc2nccnc12 [Compound 217, [2-(4-Hydroxyphenyl)-ethyl]-pteridin-4-yl-carbamic acid tert-butyl Ester] | – | – | – | – | 50 to 79 | 50 to 79 | 0 to 49
